In US20240208952A1, “THIOPHENE GLP-1 RECEPTOR AGONIST AND USE THEREOF” (priority 2021, published 2024):

How the values were obtained:
[1] = target: T1, Human GLP-1R (Homo sapiens, UniProt P43220); assay: GLP-1R agonist activity, HTRF cAMP level test in 293A GFP-GLP-1R cells; assay type: cell-based
T1 construct: expressed in transfected cells
Description: GLP-1R-mediated agonist activity was determined by cell-based assays using a homogeneous time-resolved fluorescence (i.e., HTRF)-based cAMP detection kit, which measures the level of cAMP in cells. The method was a competitive immunoassay. It enabled direct pharmacological characterization of compounds acting on Gs-coupled receptors in adherent or suspending cells.
The standard curve of native cAMP or unlabeled cAMP produced by cells competed with d2-labeled cAMP red receptors to bind monoclonal anti-cAMP Eu3+ cryptate donors, and the specific signal was inversely proportional to the concentration of cAMP in standard or tested samples.
Human GLP-1R encoding sequence (NCBI reference sequence NP_002053.3) was subcloned into pEGFP-N1 (tsingke), and the cell line stably expressing the receptor was isolated.
The final DMSO concentration in the buffer mixture was determined to be 1% o.
Cells were collected from a T25 tissue culture flask and centrifuged at room temperature at 1000 rpm for 5 minutes. The cell precipitates were then re-suspended in 1 mL of the stimulating buffer. 20 μL sample of cell suspension was counted on a counter STAR IC 1000 to determine the cell viability and the cell count per mL. The remaining cell suspension was then regulated with the stimulating buffer to deliver 2000 living cells per well using a multi-channel pipette. 5 μL of the cell suspension was added to each well of the plate which already contained the compound. The plate was sealed and incubated at 37° C. with 5% CO2 for 30 minutes.
After 30 minutes of incubation, 5 μL of d2-labeled cAMP and 5 μL of anti-cAMP cryptate (both 1:20 diluted in the cell lysis buffer) were added to each well of the plate. The plate was then incubated at room temperature for 60 minutes, and the changes of HTRF signal were read with Tecan Spark reader: […] at 340 nm (excitation)/at 615 nm and 665 nm (emission). Raw data were converted into nM cAMP by interpolation from the cAMP standard curve, and the effect in percentage was determined relative to the saturated concentration of the complete agonist GLP-17˜37 (400 nM) contained in each plate. Determination of EC50 was performed based on the agonist dose-response curve, which was analyzed using a four-parameter logical dose-response equation with a curve fitting program.
The test data presented the results in the form of a geometric mean (EC50s) based on the number of repetition times.

[2] = Metabolic stability in (human) liver microsomes; assay type: in vitro ADME; conditions: pH 7.4, 0.5 mg/mL microsomal protein, 37° C., 0-45 minutes, LC-MS/MS, read-out: LMS(t1/2 min)
Description: 1. Experimental design: test concentration: […]; control compound: testosterone; culture conditions: cultured at 37° C. for 0, 5, 15, 30, 45 minutes; method of determination: LC-MS/MS; calculation method: T1/2=0.693/K (K is the rate constant of the ln [concentration] vs. incubation time profile), Clint=(0.693/T1/2)×(1/(microsomal protein concentration (0.5 mg/mL)))×scaling factor.
2. Experimental method: 1. preheating 0.1 M K-buffer, […], pH=7.4; 2. test solutions of test compound and reference compound, 500 μM additive solution: 5 μL of 10 mM stock solution was added to 95 μL can; […] and 18.75 μL of 20 Mg/mL liver microsome were added to 479.75 μL of K/Mg buffer; 3. 3×NADPH stock solution (6 mM, 5 mg/mL) was prepared by dissolving NADPH in the buffer solution; 4. 30 μL of 1.5 μM additive solution containing 0.75 mg/mL microsomal solution was distributed to the plates designated for different time points (0, 5, 15, 30, 45 minutes); 5. at 0 min, 150 μL of ACN containing IS was added to the wells of the plate, followed by addition of 15 μL of NADPH stock solution (6 mM, step 3); 6. all other plates were pre-incubated at 37° C. for 5 minutes; 7. adding 15 μL of NADPH stock solution to the plate to start the reaction and timing; 8. 150 μL of ACN containing IS was added to the wells of the corresponding plates to stop the reaction at 5 min, 15 min, 30 min and 45 min, respectively; 9. after quenching, the plates were shaken on a shaker for 10 minutes (600 rpm/min) and then centrifuged at 6000 rpm for 15 minutes; 10. 80 μL of supernatant was transferred from each well to a 96-well sample plate containing 140 μL water for LC/MS analysis.
Detection method: LC-MS/MS-11 (8050), internal standard: tolbutamide; MS conditions: positive ion ESI for testosterone and test compound, and negative ion ESI for tolbutamide; Mobile phases: mobile phase A is 0.1% FA in water, and mobile phase B is 0.1% FA in ACN; Column and specification: ACQUITY UPLC HSS T3 1.8 um 2.1*50 mm.

[3] = target: hERG potassium channel (Homo sapiens, UniProt Q12809); assay: Inhibition of hERG potassium channels, whole-cell patch clamp in HEK-hERG cells; conditions: HEK293 cells stably expressing hERG (HEK-hERG)
Chain of hERG potassium channel (Q12809 whole entry): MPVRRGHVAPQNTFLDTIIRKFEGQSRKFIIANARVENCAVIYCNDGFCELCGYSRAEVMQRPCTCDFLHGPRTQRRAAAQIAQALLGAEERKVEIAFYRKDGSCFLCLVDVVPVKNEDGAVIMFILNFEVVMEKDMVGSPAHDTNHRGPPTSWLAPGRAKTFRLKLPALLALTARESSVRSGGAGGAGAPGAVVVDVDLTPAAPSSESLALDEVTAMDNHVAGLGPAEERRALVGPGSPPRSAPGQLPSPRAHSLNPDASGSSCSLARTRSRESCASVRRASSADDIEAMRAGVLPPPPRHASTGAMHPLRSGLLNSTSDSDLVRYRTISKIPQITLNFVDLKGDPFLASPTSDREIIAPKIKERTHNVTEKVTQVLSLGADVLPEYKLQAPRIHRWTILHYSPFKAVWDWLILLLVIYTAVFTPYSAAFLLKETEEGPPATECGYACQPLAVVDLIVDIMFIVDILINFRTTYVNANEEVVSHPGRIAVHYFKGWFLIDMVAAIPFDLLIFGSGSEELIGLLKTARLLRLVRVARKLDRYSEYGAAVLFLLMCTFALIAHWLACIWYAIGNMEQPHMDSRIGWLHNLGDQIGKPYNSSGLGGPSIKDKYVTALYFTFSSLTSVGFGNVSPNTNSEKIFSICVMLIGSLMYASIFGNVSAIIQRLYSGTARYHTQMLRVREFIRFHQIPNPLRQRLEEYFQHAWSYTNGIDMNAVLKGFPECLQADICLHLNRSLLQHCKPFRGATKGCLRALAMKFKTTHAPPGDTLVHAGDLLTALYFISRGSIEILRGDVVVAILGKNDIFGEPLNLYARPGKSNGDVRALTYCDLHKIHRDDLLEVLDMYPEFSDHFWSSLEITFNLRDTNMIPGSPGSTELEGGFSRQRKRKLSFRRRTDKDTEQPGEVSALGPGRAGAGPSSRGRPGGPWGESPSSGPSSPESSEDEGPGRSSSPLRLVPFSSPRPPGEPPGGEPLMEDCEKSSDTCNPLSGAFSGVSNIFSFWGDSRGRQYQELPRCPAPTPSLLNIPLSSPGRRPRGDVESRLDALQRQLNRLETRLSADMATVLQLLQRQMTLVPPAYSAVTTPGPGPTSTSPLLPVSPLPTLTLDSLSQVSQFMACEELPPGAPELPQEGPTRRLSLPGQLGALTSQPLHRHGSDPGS
Description: The cell suspension was added to a small petri dish and placed on an inverted microscope stage.
Such a set of pulse programming was repeated every 15 seconds throughout the experiment.

T1 sequence (P43220 24-463): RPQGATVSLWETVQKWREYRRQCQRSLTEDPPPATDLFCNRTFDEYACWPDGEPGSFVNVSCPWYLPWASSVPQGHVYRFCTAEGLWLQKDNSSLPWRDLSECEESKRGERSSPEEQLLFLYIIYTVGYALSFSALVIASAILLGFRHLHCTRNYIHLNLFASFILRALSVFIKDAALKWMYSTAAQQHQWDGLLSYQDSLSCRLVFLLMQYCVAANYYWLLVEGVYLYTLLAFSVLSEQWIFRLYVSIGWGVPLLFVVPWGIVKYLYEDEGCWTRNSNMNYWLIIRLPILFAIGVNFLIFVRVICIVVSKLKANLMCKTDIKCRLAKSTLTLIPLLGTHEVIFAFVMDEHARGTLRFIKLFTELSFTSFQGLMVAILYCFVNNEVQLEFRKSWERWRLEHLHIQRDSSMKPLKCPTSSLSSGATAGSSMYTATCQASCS

| EC50 [1] [nM] | half-life at 1 μM [2] [min] | Structure (SMILES) | inhibition at 1 µM [3] [%] | inhibition at 10 µM [3] [%] |
| --- | --- | --- | --- | --- |
| 0.1 |  | Cc1cc(C#N)sc1COc1cccc(C2CCN(Cc3nc4ccc(C(=O)O)cc4n3C[C@@H]3CCO3)CC2)n1 [Compound 11, (S)-2-((4-(6-((5-cyano-3-methylthiophen-2-yl)methoxy)pyridin-2-yl)piperidin-1-yl)methyl)-1-(oxetan-2-ylmethyl)-1H-benzo[d]imidazole-6-carboxylic acid] |  |  |
| 0.5 | 59.8 | N#Cc1ccc(COc2ccc3c(n2)C2=C(COC3)CN(Cc3nc4ccc(C(=O)O)cc4n3C[C@@H]3CCO3)CC2)s1 [Compound 12, (S)-2-((2-((5-cyanothiophen-2-yl)methoxy)-5,8,10,11-tetrahydro-oxepino[4,3-b:6,5-c′]dipyridin-9(7H)-yl)methyl)-1-(oxetan-2-ylmethyl)-1H-benzo[d]imidazole-6-carboxylic acid] |  |  |
| 0.03 |  | O=C(O)c1ccc2nc(CN3CCC(c4cccc(OCc5ccc(C(=O)C6CC6)s5)n4)CC3)n(C[C@@H]3CCO3)c2c1 [Compound 6, (S)-2-((4-(6-((5-(cyclopropanecarbonyl)thiophen-2-yl)methoxy)pyridin-2-yl)piperidin-1-yl)methyl)-1-(oxetan-2-ylmethyl)-1H-benzo[d]imidazole-6-carboxylic acid] |  |  |
| 0.47 |  | O=C(O)c1ccc2nc(CN3CCC(c4cccc(OCc5ccc(-c6cncnc6)s5)n4)CC3)n(C[C@@H]3CCO3)c2c1 [Compound 13] |  |  |
| 121 |  | CC(=O)c1cc(COc2cccc(C3CCN(Cc4nc5ccc(C(=O)O)cc5n4C[C@@H]4CCO4)CC3)n2)cs1 [Compound 3, (S)-2-((4-(6-((5-acetylthiophen-3-yl)methoxy)pyridin-2-yl)piperidin-1-yl)methyl)-1-(oxetan-2-ylmethyl)-1H-benzo[d]imidazole-6-carboxylic acid] |  |  |
| 0.05 | 22.5 | O=C(O)c1ccc2nc(CN3CCC(c4cccc(OCc5cc6ccncc6s5)n4)CC3)n(C[C@@H]3CCO3)c2c1 [Compound 10, 1-(oxetan-2-ylmethyl)-2-((4-(6-(thieno[2,3-c]pyridin-2-ylmethoxy)pyridin-2-yl)piperidin-1-yl)methyl)-1H-benzo[d]imidazole-6-carboxylic acid] |  |  |
| 0.08 |  | O=C(O)c1ccc2nc(CN3CCC(c4cccc(OCc5ccc(C(F)(F)F)s5)n4)CC3)n(C[C@@H]3CCO3)c2c1 [Compound 9, (S)-1-(oxetan-2-ylmethyl)-2-((4-(6-((5-(trifluoromethyl)thiophen-2-yl)methoxy)pyridin-2-yl)piperidin-1-yl)methyl)-1H-benzo[d]imidazole-6-carboxylic acid] |  |  |
| 0.05 |  | N#Cc1sc(COc2cccc(C3CCN(Cc4nc5ccc(C(=O)O)cc5n4C[C@@H]4CCO4)CC3)n2)cc1Cl [Compound 8, (S)-2-((4-(6-((4-chloro-5-cyanothiophen-2-yl)methoxy)pyridin-2-yl)piperidin-1-yl)methyl)-1-(oxetan-2-ylmethyl)-1H-benzo[d]imidazole-6-carboxylic acid] |  |  |
| 0.56 | 37.3 | CC(=O)c1cc(Cl)c(COc2cccc(C3CCN(Cc4nc5ccc(C(=O)O)cc5n4C[C@@H]4CCO4)CC3)n2)s1 [Compound 5, (S)-2-((4-(6-((5-acetyl-3-chlorothien-2-yl)methoxy)pyridin-2-yl)piperidin-1-yl)methyl)-1-(oxetan-2-ylmethyl)-1H-benzo[d]imidazole-6-carboxylic acid] |  |  |
| 0.02 | 21.2 | N#Cc1cc(Cl)c(COc2cccc(C3CCN(Cc4nc5ccc(C(=O)O)cc5n4C[C@@H]4CCO4)CC3)n2)s1 [Compound 7, (S)-2-((4-(6-((3-chloro-5-cyanothiophen-2-yl)methoxy)pyridin-2-yl)piperidin-1-yl)methyl)-1-(oxetan-2-ylmethyl)-1H-benzo[d]imidazole-6-carboxylic acid] |  |  |
| 88.8 |  | CC(=O)c1csc(COc2cccc(C3CCN(Cc4nc5ccc(C(=O)O)cc5n4C[C@@H]4CCO4)CC3)n2)c1 [Compound 2, (S)-2-((4-(6-((4-acetylthiophen-2-yl)methoxy)pyridin-2-yl)piperidin-1-yl)methyl)-1-(oxetan-2-ylmethyl)-1H-benzo[d]imidazole-6-carboxylic acid] |  |  |

| Structure (SMILES) | EC50 [1] [nM] | half-life at 1 μM [2] [min] | inhibition at 1 µM [3] [%] | inhibition at 10 µM [3] [%] |
| --- | --- | --- | --- | --- |
| CC(=O)c1ccc(COc2cccc(C3CCN(Cc4nc5ccc(C(=O)O)cc5n4C[C@@H]4CCO4)CC3)n2)s1 [Compound 1, (S)-2-((4-(6-((5-acetylthiophen-2-yl)methoxy)pyridin-2-yl)piperidin-1-yl)methyl)-1-(oxetan-2-ylmethyl)-1H-benzo[d]imidazole-6-carboxylic acid] | 4.67 | 115 | 9.82 | 53.8 |
| N#Cc1ccc(COc2cccc(C3CCN(Cc4nc5ccc(C(=O)O)cc5n4C[C@@H]4CCO4)CC3)n2)s1 [Compound 4, (S)-2-((4-(6-((5-Cyanothiophen-2-yl)methoxy)pyridin-2-yl)piperidin-1-yl)methyl)-1-(oxetan-2-ylmethyl)-1H-benzo[d]imidazole-6-carboxylic acid] | 1 | 132 | 14.2 | 72.2 |
